Experiment [1] concerns propiconazole resistant mutants of Chlorella species (PcZ-1). The experiment can be described thus: Growth (OD at 750 nm) of PcZ-1 mutant with and without 10 μM propiconazole, compared with wild type. The experiment is classed as cell-based, Chlorella sorokiniana. The settings on record: for Average % increase PcZ-1 + 10 uM PcZ / % increase PcZ-1 + 10 μM PcZ: PcZ-1 with 10 μM propiconazole vs wild type without propiconazole; for % increase PcZ-1 + 10 μM PcZ: individual replicates, listed as PcZ. How it is done: (§1) Chlorella sorokiniana cells (Wild type) and propiconazole resistant mutants of Chlorella species (PcZ-1) were inoculated at 0.1-0.15 OD@750 nm (each set in triplicates). To verify the effect of methanol (propiconazole was dissolved in methanol), one set was treated with 0.1% methanol. One set of flasks in triplicate of Wild type and PcZ-1 mutants were inoculated with and without 10 μM propiconazole. After inoculation flasks were kept in 12 h light/12 hour dark cycles of white light in an incubator shaker at 100 rpm. The temperature was 28° C., 70% humidity and 2% ambient CO2. 3 mL sample was removed each day, to determine the Optical density (OD) of the culture at 750 nm. The results obtained are as illustrated in FIG. 1.
FIG. 1 illustrates a graph of the growth comparison between wild type Chlorella sorokiniana and propiconazole resistant mutants of Chlorella species Chlorella sorokiniana mutant PcZ-1, in the presence of propiconazole, wherein A represents wild type Chlorella sorokiniana grown in the absence of propiconazole, B represents wild type Chlorella sorokiniana grown in the presence of 0.1% methanol, C represents wild type Chlorella sorokiniana grown in the presence of 10 μM propiconazole, D represents PcZ-1 grown in the absence of propiconazole, E represents PcZ-1 grown in the presence of 0.1% methanol, and F represents PcZ-1 grown in the presence of 10 μM propiconazole. […] The propiconazole resistant mutants of Chlorella species (PcZ-1) was not affected by the presence of propiconazole, and continued to grow.

Experiment [2] relates to wild type Chlorella sorokiniana. Nature of the experiment: Growth (OD at 750 nm) of wild type Chlorella sorokiniana in the presence of propiconazole. The experiment is classed as cell-based. The settings on record: 10 μM propiconazole; culture typically crashes after a few days. How it is done:
as §1
FIG. 1 illustrates a graph of the growth comparison between wild type Chlorella sorokiniana and propiconazole resistant mutants of Chlorella species Chlorella sorokiniana mutant PcZ-1, in the presence of propiconazole, wherein A represents wild type Chlorella sorokiniana grown in the absence of propiconazole, B represents wild type Chlorella sorokiniana grown in the presence of 0.1% methanol, C represents wild type Chlorella sorokiniana grown in the presence of 10 μM propiconazole, D represents PcZ-1 grown in the absence of propiconazole, E represents PcZ-1 grown in the presence of 0.1% methanol, and F represents PcZ-1 grown in the presence of 10 μM propiconazole. […]

The subject of experiment [3] is grazers. To be noted: general statement, no test described; cited from earlier work.

“And” between values parts separate entries of the source, which are not always exact repeats. Equal entries are not always repeated.

On to `CCCC1COC(Cn2cncn2)(c2ccc(Cl)cc2Cl)O1` (stereo not drawn) [propiconazole, Propiconazole], for which the “Growth of PcZ-1 in the presence of propiconazole” value in experiment [1] (10 μM propiconazole, continued to grow) is “not affected”. Also, the “Average % increase PcZ-1 + 10 uM PcZ” value in experiment [1] (day 4) amounted to 60.2%; in experiment [1] (day 6), 27.1%; in experiment [1] (day 7), 21.1%. For the same compound, the “% increase PcZ-1 + 10 μM PcZ” value was 45.5% and 66.7% and 68.6% in experiment [1] (day 4); 17.3% and 38.7% and 25.4% in experiment [1] (day 6); 10.6% and 29.4% and 23.2% in experiment [1] (day 7). In addition, the “Growth of the wild type Chlorella sorokiniana in the presence of propiconazole” value in experiment [2] is on record as “inhibited”. Further, the “Concentration at which propiconazole is a potent grazicide” value in experiment [3] was not below 0.5 ppm.

The record behind these values is patent US10561115B2 (priority 2016, dated 2020).
